The record followed here is patent US20130115182A1, “TOPICAL USE OF STEVIOL OR DERIVATIVES IN HAIR CARE” (DSM NUTRITIONAL PRODUCTS LTD., priority 2010, published 2013).

A short description of data set [1]: Stabilization of steviol in acidic aqueous solution (discoloration, Pantone color index). The data set is classed as physicochemical. Conditions: for Pantone index (color index of solution): 1% solution in water. On the procedure:
Steviol was dissolved at 1 wt.-% in water and the pH adjusted at different values as shown below. […] However, the more acidic the pH, the less discoloration was observed as reported by the patone color index. Color index of 1% Steviol solution in water at different pH: […]

Data set [2] concerns Human hair follicles. The experiment in a line: RT-PCR mRNA level of marker genes in hair follicles. The data set is classed as cell-based. On the procedure:
Human hair follicles were obtained from human skin fragments (obtained by plastic surgery) and grown in supplemented William's E medium supplemented with penicillin/streptomycin, L-glutamine (2 mM), insulin (10 μg/ml and hydrocortisone (8 nM). Hair follicle growth was assessed via length measurements (day 0, 4, 7). Triiodothyronine (T3, 30 μM) was used as positive control. […] At day 7, RNA was extracted from hair follicles that had been subjected to different treatments (control, T3, steviol). RNA was processed for Affymetrix® DNA microarray analysis in order to identify effects of compounds on gene expression. Where appropriate, RNA expression levels were further quantified by RT-PCR using the ABI 7900 Taqman instrumentation. The mRNA level of some marker genes involved in growth and/or differentiation of cells in the skin and in hair follicle was further determined by RT-PCR and is shown in Table 3.

Data set [3] deals with Human hair follicles. The experiment in a line: Growth of human hair follicle (length measurements in culture). The data set is classed as cell-based. Conditions: for Growth (% of control): hair follicle length. On the procedure:
(§1) Human hair follicles were obtained from human skin fragments (obtained by plastic surgery) and grown in supplemented William's E medium supplemented with penicillin/streptomycin, L-glutamine (2 mM), insulin (10 μg/ml and hydrocortisone (8 nM). Hair follicle growth was assessed via length measurements (day 0, 4, 7). Triiodothyronine (T3, 30 μM) was used as positive control. The effect of steviol (at 0.625 to 5 μg/ml) was tested in parallel. At day 7, RNA was extracted from hair follicles that had been subjected to different treatments (control, T3, steviol). RNA was processed for Affymetrix® DNA microarray analysis in order to identify effects of compounds on gene expression. Where appropriate, RNA expression levels were further quantified by RT-PCR using the ABI 7900 Taqman instrumentation.

The subject of data set [4] is Normal human melanocytes NHM (HEMn-MP, Clonetics). The experiment in a line: Quantification of melanin synthesis in cell culture. In kind it is cell-based. Conditions: for Melanin content, percentage of the control: three days, absorbance 405 nm. On the procedure: Normal human melanocytes NHM (HEMn-MP, Clonetics) were seeded in 96 well cell culture plates and grown to sub-confluence for two days in a mixture of M2-Medium (Clonetics) and Medium (Promocell). Culture medium was exchanged with Culture Medium containing Steviol and melanogenesis progressed for another three days at 37° C. with another medium exchange on day two. Including cell layer and culture supernatant the total melanin was extracted using 1.7M KOH with vigorous shaking at RT. We measured melanin content at 405 nm in an absorbance plate reader. The data is normalized to 100% for the un-treated control sample, and expressed as percentage of the control.

In data set [5] the test system is normal human scalp skin hair follicles. The experiment in a line: Hair follicle melanogenesis (in vitro graying of cultured anagen VI scalp hair follicles). The data set is classed as cell-based. Details: key: remaining pigmentation is scored minimal (+); steviol 1.25 μM (++); Remaining pigmentation is scored (+++). Conditions: seven day culture. From the text:
For optimal quality of hair follicles with an intact pigmentary-unit, normal human scalp skin hair follicles in the anagen VI stage of the hair cycle were isolated from scalp skin biopsies obtained from elective plastic surgery after obtaining informed consent from patients following the protocol published by Philpott and colleagues with slight modifications (Philpott et al. 1990, Philpott 1999). Briefly, after separation of epidermis and dermis from subcutaneous fat the dermis just above the dermis/subcutis border under a binocular dissecting microscope, the proximal two thirds of anagen hair follicles located in the subcutaneous fat were isolated using watchmakers forceps and subsequently collected in Petri dishes containing complete hair follicle culture medium (Williams E, Biochrom KG seromed, Berlin, Germany); 1% Penicillin-Streptomycin; 1% L-Glutamine 200 mM; 0.02% hydrocortisone; 0.1% Insulin. Three hair follicles per well were then randomly distributed and cultured in 24 well plates (Costar, N.Y., USA) containing […] of complete hair follicle culture medium per well. Per experiment, a minimum of three wells (containing three hair follicles each) was assigned to each test group, and was supplemented with different concentrations of test substances pre-diluted in the respective dissolvent 100× concentrated. An equal number of control follicles were cultured in complete hair follicle culture medium alone. Each experiment was repeated with hair follicles from at least three different age, pigmentation and sex matched donors. Every second day, each well was photo-documented, the pigmentation degree of each hair follicle determined, medium replaced and fresh supplements added. After 7 days hair follicles were snap frozen and stored at −80° C. Steviol was tested at two different concentrations (0.625 and 1.25 μM). […] Sphingosyl phosphorylcholine at 1 μM was used as a positive control as it is known from previous work to reduce the speed of in vitro hair graying. Remaining pigmentation is scored (+++). […]

For data set [6], the system named is Human hair follicles. The experiment in a line: Affymetrix DNA microarray gene expression in hair follicles. The data set is classed as cell-based. Conditions: day 7 RNA. On the procedure: as §1, with “instrumentation. Global effects of steviol on gene expression were determined by transcriptomics i.e. DNA microarray analysis. The obtained data were processed with Genedata software tools.” for “instrumentation.”

`C=C1C[C@@]23CC[C@H]4[C@@](C)(CCC[C@@]4(C)C(=O)O)[C@@H]2CC[C@]1(O)C3` [Steviol, steviol]: the “Pantone index (color index of solution)” value in data set [1] (pH 6) came to 155. The “Pantone index (color index of solution)” value in data set [1] (pH 6.5) worked out at 155. For the same compound, the “Pantone index (color index of solution)” value in data set [1] (pH 7) turned out to be 158. For the same compound, the “Pantone index (color index of solution)” value in data set [1] (pH 9) was 160. For the same compound, the “Time until solution turns brown (instability)” value in data set [1] (1 wt.-% in water, pH 9) is at most 1 days. In the data set on Human hair follicles [2] (0.625 μg/mL), the “Fold changes (versus control), Integrin alpha-6 mRNA” value is listed as 1.62 ± 0.06. Also, in the data set on Human hair follicles [2] (1.25 μg/mL), the “Fold changes (versus control), COX-2 mRNA” value is reported as 0.46 ± 0.17; the “Fold changes (versus control), HO-1 mRNA” value is 0.64 ± 0.08; the “Fold changes (versus control), Involucrin mRNA” value turned out to be 0.51 ± 0.22. Further, the “Fold changes (versus control), Keratin 6 mRNA” value in the data set on Human hair follicles [2] (10 μg/mL) is listed as 1.33 ± 0.11. The “Growth (% of control)” value with Human hair follicles [3] (0.625 μg/mL) was 122 % of control. Further, the “Growth (% of control)” value in the data set on Human hair follicles [3] (1.25 μg/mL) is given as 121 % of control. For the same compound, the “Growth (% of control)” value in the data set on Human hair follicles [3] (2.5 μg/mL) is given as 113 % of control. In addition, the “Growth (% of control)” value in the data set with Human hair follicles [3] (5 μg/mL) is 117 % of control. Further, in the data set on Human hair follicles [3] (0.625 to 5 μg/ml), the “Elongation of hair follicles (in words)” value was “dose-dependently favoured the elongation of hair follicles”. In data set [4] (0.25 microM), the “Melanin content, percentage of the control” value (from here on “Melanin content, percentage”) came out at 109%. Moreover, the “Production of melanin in human melanocytes (in words)” value in data set [4] (0.25 to 1 micro M) is on record as “clear dose dependent positive effect on the production of melanin”. In addition, the “Melanin content, percentage” value in data set [4] (0.5 micro M) was 124%. Also, the “Melanin content, percentage” value in data set [4] (1 micro M) amounted to 130%. In data set [5] (0.625 microM), the “Pigmentation (remaining hair follicle pigmentation score)” value is recorded as “+++”. Moreover, the “Pigmentation (remaining hair follicle pigmentation score)” value in data set [5] (1.25 microM) was “++”. Moreover, in the data set with Human hair follicles [6], the “Ratio of steviol-treated/untreated, gene CASP8 and FADD-like apoptosis regulator” value was found to be 2.58; the “Ratio of steviol-treated/untreated, gene Chemokine (C-X-C motif) ligand 12 (stromal cell-derived factor 1)” value is given as 2.22; the “Ratio of steviol-treated/untreated, gene Collagen, type IV, alpha 6” value was 2.04; the “Ratio of steviol-treated/untreated, gene Fibroblast growth factor 7 (keratinocyte growth factor)” value is listed as 2.91. Besides, in the data set with Human hair follicles [6], the “Ratio of steviol-treated/untreated, gene Insulin-like growth factor 1 receptor” value stood at 2.00; the “Ratio of steviol-treated/untreated, gene Integrin, alpha 6” value is recorded as 2.15; the “Ratio of steviol-treated/untreated, gene TIMP metallopeptidase inhibitor 3” value amounted to 2.32; the “Ratio of steviol-treated/untreated, gene Topoisomerase (DNA) II alpha 170 kDa” value is reported as 2.45. For the same compound, the “Ratio of steviol-treated/untreated, gene Transmembrane protein with EGF-like and two follistatin-like domains 2” value in the data set with Human hair follicles [6] is given as 3.10.

For the compound `CC1(C)[C@@H](O[C@H]2O[C@H](C(=O)O)[C@@H](O)[C@H](O)[C@H]2O[C@@H]2O[C@H](C(=O)O)[C@@H](O)[C@H](O)[C@H]2O)CC[C@]2(C)[C@H]3C(=O)C=C4[C@@H]5C[C@@](C)(C(=O)O)CC[C@]5(C)CC[C@@]4(C)[C@]3(C)CC[C@@H]12` [Glycyrrhizin, reference compound], the “Melanin content, percentage” value in data set [4] (1.5 mM) worked out at 132%.

Consider `CCCCCCCCCCCCC/C=C/[C@@H](O)[C@@H](N)COP(=O)([O-])OCC[N+](C)(C)C` [Sphingosylphosphorylcholine, reference compound], for which, in data set [5] (1 microM), the “Pigmentation (remaining hair follicle pigmentation score)” value is on record as “+++”.

`N[C@@H](Cc1cc(I)c(Oc2ccc(O)c(I)c2)c(I)c1)C(=O)O` [Triiodothyronine, reference compound]: the “Growth (% of control)” value in the data set on Human hair follicles [3] (30 μM, day 0, 4, 7) is 133 % of control.
